Converted amounts (≈) assume the structure as drawn.
Assays:
[1] = system: β-hexosaminidase released from RBL-2H3 cells; experiment: Inhibition of β-hexosaminidase release from IgE-sensitized, DNP-BSA-stimulated RBL-2H3 cells (anti-allergic activity); format: cell-based, rat; conditions: for inhibition at 1 µg/mL / inhibition at 10 µg/mL / inhibition at 50 µg/mL / IC50 / inhibition at 0.1 µg/mL: Rattus norvegicus, mean ± SD, triplicate; for inhibition at 1 µg/mL: 1 μg/ml; for inhibition at 10 µg/mL: 10 μg/ml; for inhibition at 50 µg/mL: 50 μg/ml; for inhibition at 0.1 µg/mL: 0.1 μg/ml
Procedure: Inhibitory activity on β-hexosaminidase released from rat basophilic leukemia cells (RBL-2H3) was evaluated following the report of Juckmetha and co-workers. RBL-2H3 cells were cultured in MEM supplemented with 15% FBS, penicillin/streptomycin (each 100 μg/mL). Cells were seeded in 24-well plate with the concentration of 5 × 10^5 cells/well and incubated in 5% CO2 at 37 °C for 1.5 h. RBL-2H3 were sensitized with 0.45 μg/mL of Anti-DNP IgE and incubated at 37 °C in 5% CO2 for 24 h. Cells were then washed with 400 μL of Siraganian buffer (Buffer A) [119 mM NaCl, 5 mM KCl, 5.6 mM glucose, 0.4 mM MgCl2, 1 mM CaCl2, 25 mM piperazine-N,N′-bis (2-ethanesulfonic acid) (PIPES), 0.1% BSA, and 40 mM NaOH, pH 7.2]. Subsequently, 160 μL of buffer A was added into the wells and incubated at 37 °C for 10 min. The stock solution of the sample was diluted in DMSO and the working samples were diluted with buffer A. The concentrations of the working samples were 0.1 μg/mL, 1 μg/mL, 10 μg/mL and 50 μg/mL. The serially diluted samples (20 μL) were added to each well and incubated for 10 min. The reaction of antigen-antibody was obtained by adding 20 μL of antigen (DNP-BSA) to produce a final concentration of 10 μg/mL and incubated at 37 °C for 20 min. The amount of β-hexosaminidase released from the degranulation was determined by adding 50 μL of the substrate, PNAG (1 mM in 0.1 M citrate buffer, pH 4.5). The enzyme reaction was stopped by adding 200 μL of 0.1 M carbonate buffer pH 10.0. The product of enzyme reaction, p-nitrophenol, was analyzed by measuring absorbance at wavelength 405 nm. Chlorpheniramine was used as positive control. The percentage of inhibition was calculated by the following equation. Inhibition%=1−T−B−N/C−B−N×100
Where • C = Optical density of control: [+] DNP-BSA, [−] Test sample; • T = Optical density of test sample: [+] DNP-BSA, [+] Test sample; • B = Optical density of blank: […], [+] Test sample; • N = Optical density of normal: [−] DNP-BSA, [−] Test sample.

[2] = system: β-hexosaminidase released from RBL-2H3 cells; experiment: as above; format: cell-based; conditions: Rattus norvegicus, 100 μg/ml, mean ± SD, triplicate
[3] = system: NO production of LPS-induced RAW 264.7 cells; experiment: Inhibition of NO production in LPS-induced RAW 264.7 cells (Griess reagent); format: cell-based, murine; conditions: Mus musculus; for inhibition at 0.1 µg/mL: RAW264.7, 0.1 μg/mL; for inhibition at 0.1 µg/mL / inhibition at 1 µg/mL / inhibition at 10 µg/mL / inhibition at 50 µg/mL: mean ± SD, read-out: %Inhibition of LPS-induced nitric oxide release; for inhibition at 1 µg/mL: RAW264.7, 1 μg/mL; for inhibition at 10 µg/mL: RAW264.7, 10 μg/mL; for inhibition at 50 µg/mL: RAW264.7, 50 μg/mL; for IC50: RAW264.7, mean ± SD, triplicate, read-out: IC50, LPS-induced nitric oxide release
Procedure: The inhibitory activity of crude extracts and isolated compounds on NO production of LPS-induced RAW 264.7 cells was investigated according to a previously reported method. RAW 264.7 cells were cultured in RPMI medium supplemented with 10% FBS, penicillin/streptomycin (each 100 units/mL) and incubated at 37 °C in 5% CO2 with 95% humidity. The cells were seeded into 96-well plate (1 × 10^5 cells per well) and incubated for 24 h. Subsequently, the cells were induced by LPS at the final concentration of 2 ng/mL and the serially diluted samples (0.1 μg/mL, 1 μg/mL, 10 μg/mL and 50 μg/mL) were added. The plate was incubated for 24 h before being tested for NO accumulation and cell viability. Prednisolone was used as positive control. The accumulated NO released from the LPS-induced RAW 264.7 cells was determined by using Griess’s reagent (1% sulfanilamide and 0.1% N-(1- naphthyl) ethylenediamine dihydrochloride in 2.5% phosphoric acid). The supernatant in each well (100 μL) was transferred to another 96-well plate and 100 μL of Griess’s reagent was added. The optical density of reaction was measured at 570 nm. The inhibitory activity (%) of NO production was calculated by the following equation and the IC50 values were calculated. Inhibition%=ODcontrol‐ODsample/ODcontrol×100

[4] = Viability of LPS-treated RAW 264.7 cells (MTT); format: cell-based, murine; conditions: mouse
Procedure: The viability of the LPS treated RAW 264.7 cells were colorimetrically determined by using 3-(4, 5-dimethyl-2-thiazolyl)-2, 5-diphenyl-2H-tetrazolium bromide (MTT) method. MTT solution (10 μL) was added into each well and the plate was incubated for 2 h. The remained formazan crystal in each well, after removing the medium, was dissolved by 0.04 M HCl in isopropanol (100 μL). The optical density was measured by using microplate reader at wavelength 570 nm.

[5] = system: HepG2; experiment: Cytotoxic activity by sulforhodamine B (SRB) assay, HepG2; format: cell-based; conditions: for Selective index: HaCaT versus HepG2; for IC50: Homo sapiens, HepG2, SRB, 72 h exposure, 72 h recovery
Procedure: (§1) The crude extracts and isolated compounds were evaluated for cytotoxic activity by using sulforhodamine B (SRB) assay against two cancerous liver cells (HepG2 and KKU-M156) and a normal cells (HaCaT). The SRB protocol has been described previously. HepG2 was cultured in MEM; KKU-M156 was cultured in HAM F-12 media and HaCaT was cultured in DMEM. All cultured media were supplemented with 10% FBS, penicillin/streptomycin (each 100 units/mL). All cells were incubated in 5% CO2 at 37 °C with 95% humidity. Based on the growth curve, each cell was seeded into 96-well plate (100 μL per well) with optimal density (HepG2: 3 × 10^3 cells per well, KKU-M156: 2 × 10^3 cells per well and HaCaT: 8 × 10^3 cells per well). Seeded cells were incubated at 37 °C in a 5% CO2 with 95% humidity for 24 h. Cells were then treated with 100 μL of different concentrations of sample solution (0.1 μg/mL, 1 μg/mL, 10 μg/mL and 50 μg/mL). DMSO at the same concentration as the sample (2% v/v) was used as the control solvent. Cell cultures were incubated for the exposure time of 72 h. After the exposure time, the medium was removed and the plate was washed with 200 μL phosphate buffer saline (PBS) and 200 μL fresh medium was added into each well. The plates were then incubated for 72 h for the recovery period. The cells were then fixed by adding 100 μL of 40% trichloroacetic acid and the plates left at 4 °C for 45 min. After the plates were washed, 50 μL of SRB solution (0.4% w/v in acetic acid) was added into each well and the cells were allowed to be strained for 30 min. The stained cells were dissolved by using 100 μL of 10 mM Tris base pH 10.5. The %inhibition was calculated using the following equation. Inhibition%=ODcontrol‐ODsample/ODcontrol×100

[6] = system: KKU-M156; experiment: Cytotoxic activity by sulforhodamine B (SRB) assay, KKU-M156; format: cell-based; conditions: for Selective index: HaCaT versus KKU-M156; for IC50: KKU-M156, SRB, 72 h exposure, 72 h recovery
Procedure: as §1

[7] = Cytotoxic activity by sulforhodamine B (SRB) assay, normal cells HaCaT; format: cell-based; conditions: human, 72 h exposure, 72 h recovery
Procedure: as §1

[8] = system: NO production of LPS-induced RAW 264.7 cells; experiment: Inhibition of NO production in LPS-induced RAW 264.7 cells (Griess reagent); format: cell-based, murine; conditions: Mus musculus, RAW264.7, 0.01 μg/mL, mean ± SD, read-out: %Inhibition of LPS-induced nitric oxide release

Structure (SMILES)	inhibition at 1 µg/mL [1]	inhibition at 10 µg/mL [1]	inhibition at 50 µg/mL [1]	IC50 [1]	inhibition at 0.1 µg/mL [1]	inhibition at 0.1 µg/mL [3]	inhibition at 1 µg/mL [3]	inhibition at 10 µg/mL [3]	inhibition at 50 µg/mL [3]	IC50 [3]	viability at 0.1 μg/mL [4]	viability at 1 μg/mL [4]	viability at 10 μg/mL [4]	viability at 50 μg/mL [4]	Selective index [5]	IC50 [5]	Selective index [6]	IC50 [6]	IC50 at 72 h [7]	further results
CN(C)CCC(c1ccc(Cl)cc1)c1ccccn1 (centres unmarked) [Chlorpheniramine, reference compound]	14.9 ± 1.57%	36.2 ± 2.84%	71.4 ± 11%	17.7 ± 1.61 µg/mL	–	–	–	–	–	–	–	–	–	–	–	–	–	–	–	inhibition at 100 µg/mL [2]: 81.3 ± 9.51%
CCC(=O)c1ccc(OC)c(OC)c1 [Compound 1, 1-(3′,4′-dimethoxyphenyl) propan-1-one]	4.84 ± 3.46%	29.4 ± 2.01%	77.7 ± 3.6%	21.2 ± 2.01 µg/mL	-7.88 ± 3.01%	2.66 ± 0.23%	3.91 ± 3.03%	14.4 ± 1.71%	69.2 ± 2.49%	40.4 ± 1.32 µg/mL (≈ 208 µM)	84.7%	89.7%	84.7%	80.5%	> 1.15	87.1 ± 1.36 µg/mL (≈ 448 µM)	> 1.71	58.3 ± 5.95 µg/mL (≈ 300 µM)	> 100 µg/mL	–
CCC(=O)c1cc(OC)c(OC)c(OC)c1 [Compound 2, 1-(3′,4′,5′-trimethoxyphenyl) propan-1-one]	15.1 ± 1.71%	30.4 ± 6.7%	75.2 ± 6.47%	26.2 ± 6.06 µg/mL	-5.37 ± 2.3%	7.09 ± 6.86%	11.1 ± 9.89%	8.69 ± 6.93%	58.8 ± 3.59%	33.6 ± 5.25 µg/mL (≈ 150 µM)	94.5%	88.8%	80.8%	90.4%	> 2.10	47.6 ± 1.2 µg/mL (≈ 212 µM)	> 1.04	95.65 ± 0.48 µg/mL (≈ 427 µM)	> 100 µg/mL	–
CCC(=O)c1cc(OC)c(OC)cc1O [Compound 3, 1-(2′-hydroxy-4′, 5′-dimethoxyphenyl) propan-1-one]	8.52 ± 2.93%	17.4 ± 5.72%	60.8 ± 8.98%	44.4 ± 7.33 µg/mL	-14.2 ± 5.67%	-0.82 ± 3.26%	2.64 ± 0.31%	14.6 ± 3.43%	34.4 ± 3.07%	> 50 µg/mL	102%	97%	97.3%	91.6%	> 1.11	90.3 ± 5.65 µg/mL (≈ 430 µM)	> 1.20	83.4 ± 5.2 µg/mL (≈ 397 µM)	> 100 µg/mL	anti-allergic activity (in words) ([1]; judged from IC50): moderate activity
C[C@]12C=CC(=O)C=C1CC[C@@H]1[C@@H]2[C@@H](O)C[C@@]2(C)[C@H]1CC[C@]2(O)C(=O)CO [Prednisolone, reference compound]	–	–	–	–	–	47.7 ± 6.24%	69.9 ± 3.76%	77.9 ± 8.12%	–	0.11 ± 0.02 µg/mL (≈ 0.305 µM)	84.3%	89.5%	80.8%	–	–	–	–	–	–	viability at 0.01 μg/mL ([4]; 0.01 μg/mL): 100%; inhibition at 0.01 µg/mL [8]: 19.8 ± 3.43%
CC[C@]1(O)C[C@H]2CN(CCc3c([nH]c4ccccc34)[C@@](C(=O)OC)(c3cc4c(cc3OC)N(C=O)[C@H]3[C@@](O)(C(=O)OC)[C@H](OC(C)=O)[C@]5(CC)C=CCN6CC[C@]43[C@@H]65)C2)C1 [Vincristine, reference compound]	–	–	–	–	–	–	–	–	–	–	–	–	–	–	< 0.008	0.013 ± 0.0006 µg/mL (≈ 0.0158 µM)	< 0.033	0.003 ± 0.0015 µg/mL (≈ 0.00364 µM)	< 0.0001 µg/mL	–

— PMC6373163, “Potential in vitro anti-allergic, anti-inflammatory and cytotoxic activities of ethanolic extract of Baliospermum montanum root, its major components and a validated HPLC method” (BMC Complementary and Alternative Medicine, 2019)
